Laboratory results taken from US8999940B2 (Ipsen Pharma S.A.S., priority 2008, dated 2015).

Key:
[1] = molecular target: T1, human recombinant GIP receptor (Homo sapiens, UniProt P48546); test: In vitro hGIP receptor binding assay
T1 construct: expressed in transfected cells; host or cells: CHO-K1 clonal cells (membrane preparation)
T1 sequence (P48546 22-466): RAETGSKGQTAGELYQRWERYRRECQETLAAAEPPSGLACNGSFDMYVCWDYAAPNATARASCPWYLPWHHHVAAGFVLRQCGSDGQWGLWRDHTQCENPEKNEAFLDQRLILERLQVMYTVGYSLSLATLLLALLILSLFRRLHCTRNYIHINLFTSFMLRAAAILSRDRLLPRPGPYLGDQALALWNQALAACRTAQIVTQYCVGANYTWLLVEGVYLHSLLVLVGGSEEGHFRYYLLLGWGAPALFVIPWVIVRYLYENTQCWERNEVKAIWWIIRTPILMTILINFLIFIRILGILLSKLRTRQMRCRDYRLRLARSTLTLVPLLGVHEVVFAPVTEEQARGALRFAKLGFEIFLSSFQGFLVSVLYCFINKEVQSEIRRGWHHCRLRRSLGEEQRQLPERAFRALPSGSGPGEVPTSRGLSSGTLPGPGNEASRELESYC
Experimental: A. In Vitro hGIP Receptor Binding Assay […] The incubations were terminated by rapid filtration through GF/C filters (pre-soaked in 0.5% polyethylenimine) using a Brandel filtration manifold. Each tube and filter were then washed three times with 5-ml aliquots of ice-cold buffer.

[2] = Human plasma half-life assay; format: in vitro ADME; conditions: 37° C., LC-MS, read-out: Human Plasma T½ (converted)
[3] = Rat plasma half-life assay; format: in vitro ADME; conditions: 37° C., LC-MS, read-out: Rat Plasma T½ (converted)

| Compound | Ki [1] [nM] | half-life at 0.1 mg/ml [2] [h] | half-life at 0.1 mg/ml [3] [h] |
| --- | --- | --- | --- |
| CC[C@H](C)[C@H](NC(=O)[C@H](CCCCN)NC(=O)[C@H](CC(=O)O)NC(=O)[C@H](CCSC)NC(=O)[C@H](C)NC(=O)[C@@H](NC(=O)C1(NC(=O)[C@H](Cc2ccc(O)cc2)NC(=O)[C@H](CC(=O)O)NC(=O)[C@H](CO)NC(=O)[C@@H](NC(=O)[C@H](Cc2ccccc2)NC(=O)[C@@H](NC(=O)CNC(=O)[C@H](CCC(=O)O)NC(=O)C(C)(C)NC(=O)[C@@H](N)Cc2ccsc2)[C@@H](C)O)[C@@H](C)CC)CCCC1)[C@@H](C)CC)C(=O)N[C@@H](Cc1c[nH]cn1)C(=O)N[C@@H](CCC(N)=O)C(=O)N[C@@H](CCC(N)=O)C(=O)N[C@@H](CC(=O)O)C(=O)N[C@@H](Cc1ccccc1)C(=O)N[C@H](C(=O)N[C@@H](CC(N)=O)C(=O)N[C@@H](Cc1c[nH]c2ccccc12)C(=O)N[C@@H](CC(C)C)C(=O)N[C@@H](CC(C)C)C(=O)N[C@@H](C)C(=O)N[C@@H](CCC(N)=O)C(=O)N[C@@H](CCCCN)C(=O)NCC(=O)N[C@@H](CCCCN)C(=O)N[C@@H](CCCCN)C(=O)N[C@@H](CC(N)=O)C(=O)N[C@@H](CC(=O)O)C(=O)N[C@@H](Cc1c[nH]c2ccccc12)C(=O)N[C@@H](CCCCN)C(=O)N[C@@H](Cc1c[nH]cn1)C(=O)N[C@@H](CC(N)=O)C(=O)N[C@H](C(=O)NC1(C(=O)N[C@@H](CCC(N)=O)C(=O)O)CCCC1)[C@@H](C)CC)C(C)C [Example 37, (3Thi^1, Aib^2, A5c^11, 41)hGIP(1-42)-OH] | 7.05 | 29.3 | > 72 |
| CC[C@H](C)[C@H](NC(=O)[C@H](CCCCN)NC(=O)[C@H](CC(=O)O)NC(=O)[C@H](CCSC)NC(=O)[C@H](C)NC(=O)[C@@H](NC(=O)C1(NC(=O)[C@H](Cc2ccc(O)cc2)NC(=O)[C@H](CC(=O)O)NC(=O)[C@H](CO)NC(=O)[C@@H](NC(=O)[C@H](Cc2ccccc2)NC(=O)[C@@H](NC(=O)CNC(=O)[C@H](CCC(=O)O)NC(=O)C(C)(C)NC(=O)[C@@H](N)Cc2ccc(C#N)cc2)[C@@H](C)O)[C@@H](C)CC)CCCC1)[C@@H](C)CC)C(=O)N[C@@H](Cc1c[nH]cn1)C(=O)N[C@@H](CCC(N)=O)C(=O)N[C@@H](CCC(N)=O)C(=O)N[C@@H](CC(=O)O)C(=O)N[C@@H](Cc1ccccc1)C(=O)N[C@H](C(=O)N[C@@H](CC(N)=O)C(=O)N[C@@H](Cc1c[nH]c2ccccc12)C(=O)N[C@@H](CC(C)C)C(=O)N[C@@H](CC(C)C)C(=O)N[C@@H](C)C(=O)N[C@@H](CCC(N)=O)C(=O)N[C@@H](CCCCN)C(=O)NCC(=O)N[C@@H](CCCCN)C(=O)N[C@@H](CCCCN)C(=O)N[C@@H](CC(N)=O)C(=O)N[C@@H](CC(=O)O)C(=O)N[C@@H](Cc1c[nH]c2ccccc12)C(=O)N[C@@H](CCCCN)C(=O)N[C@@H](Cc1c[nH]cn1)C(=O)N[C@@H](CC(N)=O)C(=O)N[C@H](C(=O)NC1(C(=O)N[C@@H](CCC(N)=O)C(=O)O)CCCC1)[C@@H](C)CC)C(C)C [Example 38, (4CN-Phe^1, Aib^2, A5c^11, 41)hGIP(1-42)-OH] | 14.4 | 16.4 | > 72 |
| CC[C@H](C)[C@H](NC(=O)[C@H](CCCCN)NC(=O)[C@H](CC(=O)O)NC(=O)[C@H](CCSC)NC(=O)[C@H](C)NC(=O)[C@@H](NC(=O)C1(NC(=O)[C@H](Cc2ccc(O)cc2)NC(=O)[C@H](CC(=O)O)NC(=O)[C@H](CO)NC(=O)[C@@H](NC(=O)[C@H](Cc2ccccc2)NC(=O)[C@@H](NC(=O)CNC(=O)[C@H](CCC(=O)O)NC(=O)C(C)(C)NC(=O)[C@@H](N)Cc2cccc(F)c2)[C@@H](C)O)[C@@H](C)CC)CCCC1)[C@@H](C)CC)C(=O)N[C@@H](Cc1c[nH]cn1)C(=O)N[C@@H](CCC(N)=O)C(=O)N[C@@H](CCC(N)=O)C(=O)N[C@@H](CC(=O)O)C(=O)N[C@@H](Cc1ccccc1)C(=O)N[C@H](C(=O)N[C@@H](CC(N)=O)C(=O)N[C@@H](Cc1c[nH]c2ccccc12)C(=O)N[C@@H](CC(C)C)C(=O)N[C@@H](CC(C)C)C(=O)N[C@@H](C)C(=O)N[C@@H](CCC(N)=O)C(=O)N[C@@H](CCCCN)C(=O)NCC(=O)N[C@@H](CCCCN)C(=O)N[C@@H](CCCCN)C(=O)N[C@@H](CC(N)=O)C(=O)N[C@@H](CC(=O)O)C(=O)N[C@@H](Cc1c[nH]c2ccccc12)C(=O)N[C@@H](CCCCN)C(=O)N[C@@H](Cc1c[nH]cn1)C(=O)N[C@@H](CC(N)=O)C(=O)N[C@H](C(=O)NC1(C(=O)N[C@@H](CCC(N)=O)C(=O)O)CCCC1)[C@@H](C)CC)C(C)C [Example 41, (3F-Phe^1, Aib^2, A5c^11, 41)hGIP(1-42)-OH] | 5.43 | 63.6 | > 66 |
| CC[C@H](C)[C@H](NC(=O)[C@H](CCCCN)NC(=O)[C@H](CC(=O)O)NC(=O)[C@H](CCSC)NC(=O)[C@H](C)NC(=O)[C@@H](NC(=O)C1(NC(=O)[C@H](Cc2ccc(O)cc2)NC(=O)[C@H](CC(=O)O)NC(=O)[C@H](CO)NC(=O)[C@@H](NC(=O)[C@H](Cc2ccccc2)NC(=O)[C@@H](NC(=O)CNC(=O)[C@H](CCC(=O)O)NC(=O)C(C)(C)NC(=O)[C@@H](N)Cc2c(C)cc(O)cc2C)[C@@H](C)O)[C@@H](C)CC)CCCC1)[C@@H](C)CC)C(=O)N[C@@H](Cc1c[nH]cn1)C(=O)N[C@@H](CCC(N)=O)C(=O)N[C@@H](CCC(N)=O)C(=O)N[C@@H](CC(=O)O)C(=O)N[C@@H](Cc1ccccc1)C(=O)N[C@H](C(=O)N[C@@H](CC(N)=O)C(=O)N[C@@H](Cc1c[nH]c2ccccc12)C(=O)N[C@@H](CC(C)C)C(=O)N[C@@H](CC(C)C)C(=O)N[C@@H](C)C(=O)N[C@@H](CCC(N)=O)C(=O)N[C@@H](CCCCN)C(=O)NCC(=O)N[C@@H](CCCCN)C(=O)N[C@@H](CCCCN)C(=O)N[C@@H](CC(N)=O)C(=O)N[C@@H](CC(=O)O)C(=O)N[C@@H](Cc1c[nH]c2ccccc12)C(=O)N[C@@H](CCCCN)C(=O)N[C@@H](Cc1c[nH]cn1)C(=O)N[C@@H](CC(N)=O)C(=O)N[C@H](C(=O)N[C@H](C(=O)N[C@@H](CCC(N)=O)C(=O)N[C@@H](Cc1c[nH]cn1)C(=O)O)[C@@H](C)O)[C@@H](C)CC)C(C)C [Example 53, (2,6Me-Tyr^1, Aib^2, A5c^11, His^43)hGIP(1-43)-OH] | 35 | 20 | 23.2 |
| CC[C@H](C)[C@H](NC(=O)[C@H](CCCCN)NC(=O)[C@H](CC(=O)O)NC(=O)C1(NC(=O)[C@H](C)NC(=O)[C@@H](NC(=O)C2(NC(=O)[C@H](Cc3ccc(O)cc3)NC(=O)[C@H](CC(=O)O)NC(=O)[C@H](CO)NC(=O)[C@@H](NC(=O)[C@H](Cc3ccccc3)NC(=O)[C@@H](NC(=O)CNC(=O)[C@H](CCC(=O)O)NC(=O)C(C)(C)NC(=O)[C@@H](N)Cc3c(C)cc(O)cc3C)[C@@H](C)O)[C@@H](C)CC)CCCC2)[C@@H](C)CC)CCCC1)C(=O)N[C@@H](Cc1c[nH]cn1)C(=O)N[C@@H](CCC(N)=O)C(=O)N[C@@H](CCC(N)=O)C(=O)N[C@@H](CC(=O)O)C(=O)N[C@@H](Cc1ccccc1)C(=O)N[C@H](C(=O)N[C@@H](CC(N)=O)C(=O)N[C@@H](Cc1c[nH]c2ccccc12)C(=O)N[C@@H](CC(C)C)C(=O)N[C@@H](CC(C)C)C(=O)N[C@@H](C)C(=O)N[C@@H](CCC(N)=O)C(=O)N[C@@H](CCCCN)C(=O)NCC(=O)N[C@@H](CCCCN)C(=O)N[C@@H](CCCCN)C(=O)N[C@@H](CC(N)=O)C(=O)N[C@@H](CC(=O)O)C(=O)N[C@@H](Cc1c[nH]c2ccccc12)C(=O)N[C@@H](CCCCN)C(=O)N[C@@H](Cc1c[nH]cn1)C(=O)N[C@@H](CC(N)=O)C(=O)N[C@H](C(=O)N[C@H](C(=O)N[C@@H](CCC(N)=O)C(=O)N[C@@H](Cc1c[nH]cn1)C(=O)O)[C@@H](C)O)[C@@H](C)CC)C(C)C [Example 54, (2,6Me-Tyr^1, Aib^2, A5c^11, 14, His^43)hGIP(1-43)-OH] | 50.2 | > 50 | 21.5 |
| CCCC[C@H](NC(=O)[C@H](C)NC(=O)[C@@H](NC(=O)C1(NC(=O)[C@H](Cc2ccc(O)cc2)NC(=O)[C@H](CC(=O)O)NC(=O)[C@H](CO)NC(=O)[C@@H](NC(=O)[C@H](Cc2ccccc2)NC(=O)[C@@H](NC(=O)CNC(=O)[C@H](CCC(=O)O)NC(=O)C(C)(C)NC(=O)[C@@H](N)Cc2c(C)cc(O)cc2C)[C@@H](C)O)[C@@H](C)CC)CCCC1)[C@@H](C)CC)C(=O)N[C@@H](CC(=O)O)C(=O)N[C@@H](CCCCN)C(=O)N[C@H](C(=O)N[C@@H](Cc1c[nH]cn1)C(=O)N[C@@H](CCC(N)=O)C(=O)N[C@@H](CCC(N)=O)C(=O)N[C@@H](CC(=O)O)C(=O)N[C@@H](Cc1ccccc1)C(=O)N[C@H](C(=O)N[C@@H](CC(N)=O)C(=O)N[C@@H](Cc1c[nH]c2ccccc12)C(=O)N[C@@H](CC(C)C)C(=O)N[C@@H](CC(C)C)C(=O)N[C@@H](C)C(=O)N[C@@H](CCC(N)=O)C(=O)N[C@@H](CCCCN)C(=O)NCC(=O)N[C@@H](CCCCN)C(=O)N[C@@H](CCCCN)C(=O)N[C@@H](CC(N)=O)C(=O)N[C@@H](CC(=O)O)C(=O)N[C@@H](Cc1c[nH]c2ccccc12)C(=O)N[C@@H](CCCCN)C(=O)N[C@@H](Cc1c[nH]cn1)C(=O)N[C@@H](CC(N)=O)C(=O)N[C@H](C(=O)N[C@H](C(=O)N[C@@H](CCC(N)=O)C(=O)N[C@@H](Cc1c[nH]cn1)C(=O)O)[C@@H](C)O)[C@@H](C)CC)C(C)C)[C@@H](C)CC [Example 55, (2,6Me-Tyr^1, Aib^2, A5c^11, Nle^14, His^43)hGIP(1-43)-OH] | 39 | 37.7 | 16.1 |
